Experimental data reported in patent US11192867B2, “Microbiocidal oxadiazole derivatives” (SYNGENTA PARTICIPATIONS AG, priority 2016, dated 2021).

Tests used:
Phakopsora pachyrhizi = assay: Fungicidal activity against Phakopsora pachyrhizi / soybean / leaf disc preventative (Asian soybean rust); type: in vivo; conditions: foliar, 200 ppm in the applied formulation, soybean leaf disks, vs untreated control, read-out: disease control
How it was run: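 Preventative test: compound sprayed onto soybean leaf discs one day before spore inoculation of the lower leaf face. Incubation at 20 °C and 75% rh, first 24-36 h in darkness, then a 12 h light cycle. Disease control versus untreated discs read 12-14 days after application.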

[1] = test system: Puccinia recondita f. sp. Tritici; assay: Fungicidal activity against Puccinia recondita f. sp. Tritici / wheat / leaf disc curative (brown rust); type: in vivo; conditions: foliar, 24 h, 200 ppm in the applied formulation, wheat leaf segments cv. Kanzler, applied 1 day after inoculation, vs untreated control, read-out: disease control
Procedure: Leaf disks or leaf segments of various plant species are cut from plants grown in a greenhouse. The cut leaf disks or segments are placed in multiwell plates (24-well format) onto water agar. The leaf disks are sprayed with a test solution before (preventative) or after (curative) inoculation. Compounds to be tested are prepared as DMSO solutions (max. 10 mg/ml) which are diluted to the appropriate concentration with 0.025% Tween20 just before spraying. The inoculated leaf disks or segments are incubated under defined conditions (temperature, relative humidity, light, etc.) according to the respective test system. A single evaluation of disease level is carried out 3 to 14 days after inoculation, depending on the pathosystem. Percent disease control relative to the untreated check leaf disks or segments is then calculated.
Wheat leaf segments cv. Kanzler are placed on agar in multiwell plates (24-well format). The leaf segments are then inoculated with a spore suspension of the fungus. Plates were stored in darkness at 19° C. and 75% relative humidity. The formulated test compound diluted in water was applied 1 day after inoculation. The leaf segments were incubated at 19° C. and 75% relative humidity under a light regime of 12 hours light/12 hours darkness in a climate cabinet and the activity of a compound was assessed as percent disease control compared to untreated when an appropriate level of disease damage appears in untreated check leaf segments (6 to 8 days after application).
The following compounds at 200 ppm in the applied formulation give at least 80% disease control in this test when compared to untreated control leaf disks under the same conditions, which show extensive disease development.

[2] = test system: Glomerella lagenarium (Colletotrichum lagenarium); assay: Fungicidal activity against Glomerella lagenarium (Colletotrichum lagenarium) liquid culture / cucumber / preventative (anthracnose); type: cell-based; conditions: Colletotrichum orbiculare, 72 h; 20 ppm in the applied formulation; liquid culture (PDB), growth inhibition measured photometrically 3 to 4 days after application; vs untreated control; read-out: disease control
How it was run: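 Test compound in DMSO is placed in a microtiter plate, then potato dextrose broth containing conidia from cryogenic storage is added. Incubation runs at 24° C., and growth inhibition is read photometrically after 3 to 4 days.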

[3] = test system: Puccinia recondita f. sp. Tritici; assay: Fungicidal activity against Puccinia recondita f. sp. Tritici / wheat / leaf disc preventative (brown rust); type: in vivo; conditions: foliar, 200 ppm in the applied formulation, wheat leaf segments cv. Kanzler, inoculated 1 day after application, vs untreated control, read-out: disease control
How it was run: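 Preventative leaf-segment test, cv. Kanzler on agar: spray compound, inoculate with spore suspension 1 d post-application, hold at 19° C./75% rh, 12 h/12 h light cycle. Read-out = % disease control vs untreated check at 7–9 d; 200 ppm in applied formulation.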

CCON=CC(C)NC(=O)c1ccc(-c2noc(C(F)(F)F)n2)cc1 (stereo not drawn) [Compound 1.43, N-(2-ethoxyimino-1-methyl-ethyl)-4-[5-(trifluoromethyl)-1,2,4-oxadiazol-3-yl]benzamide]
≥ 80%: pest or weed control at 200 ppm (Phakopsora pachyrhizi) | pest or weed control at 200 ppm [1] | inhibition of growth at 20 ppm [2] | pest or weed control at 200 ppm [3]

O=C(NCC=NOCC1CC1)c1ccc(-c2noc(C(F)(F)F)n2)cc1 [Compound 1.101, N-[2-(cyclopropyl-methoxyimino)ethyl]-4-[5-(trifluoromethyl)-1,2,4-oxadiazol-3-yl]benzamide]
≥ 80%: pest or weed control at 200 ppm (Phakopsora pachyrhizi) | pest or weed control at 200 ppm [1] | inhibition of growth at 20 ppm [2] | pest or weed control at 200 ppm [3]

CC(CNC(=O)c1ccc(-c2noc(C(F)(F)F)n2)cc1)=NOC(C)C [Compound 1.138, N-(2-isopropoxyimino-propyl)-4-[5-(trifluoromethyl)-1,2,4-oxadiazol-3-yl]benzamide]
≥ 80%: pest or weed control at 200 ppm (Phakopsora pachyrhizi) | pest or weed control at 200 ppm [1] | inhibition of growth at 20 ppm [2] | pest or weed control at 200 ppm [3]

CC(C=NO[C@H](C)C(=O)O)NC(=O)c1ccc(-c2noc(C(F)(F)F)n2)cc1 (stereo partly drawn) [Compound 1.29, (2R)-2-[2-[[4-[5-(trifluoromethyl)-1,2,4-oxadiazol-3-yl]benzoyl]amino]propylideneamino] oxypropanoic acid]
≥ 80%: pest or weed control at 200 ppm [1] | inhibition of growth at 20 ppm [2] | pest or weed control at 200 ppm [3]

COc1ccc(CON=CC(C)NC(=O)c2ccc(-c3noc(C(F)(F)F)n3)cc2)cc1 (stereo not drawn) [Compound 1.19, N-[2-[(4-methoxyphenyl)methoxyimino]-1-methyl-ethyl]-4-[5-(trifluoromethyl)-1,2,4-oxadiazol-3-yl]benzamide]
≥ 80%: pest or weed control at 200 ppm (Phakopsora pachyrhizi) | pest or weed control at 200 ppm [1]

C=C(Cl)CON=CCNC(=O)c1ccc(-c2noc(C(F)(F)F)n2)cc1 [Compound 1.100, N-[2-(2-chloroallyloxy-imino)ethyl]-4-[5-(trifluoromethyl)-1,2,4-oxadiazol-3-yl]benzamide]
≥ 80%: pest or weed control at 200 ppm (Phakopsora pachyrhizi) | pest or weed control at 200 ppm [1] | inhibition of growth at 20 ppm [2] | pest or weed control at 200 ppm [3]

O=C(NCC=NOCC(F)(F)F)c1ccc(-c2noc(C(F)(F)F)n2)cc1 [Compound 1.95, N-[2-(2,2,2-trifluoroethoxy-imino)ethyl]-4-[5-(trifluoromethyl)-1,2,4-oxadiazol-3-yl]benzamide]
≥ 80%: pest or weed control at 200 ppm (Phakopsora pachyrhizi) | pest or weed control at 200 ppm [1] | inhibition of growth at 20 ppm [2] | pest or weed control at 200 ppm [3]

CC(CNC(=O)c1ccc(-c2noc(C(F)(F)F)n2)cc1)=NO[C@@H](C)C(=O)O [Compound 1.120, (2S)-2-[[1-methyl-2-[[4-[5-(trifluoromethyl)-1,2,4-oxadiazol-3-yl]benzoyl]amino]ethylidene]amino] oxypropanoic acid]
≥ 80%: pest or weed control at 200 ppm [1] | inhibition of growth at 20 ppm [2] | pest or weed control at 200 ppm [3]

COc1cccc(CON=CC(C)NC(=O)c2ccc(-c3noc(C(F)(F)F)n3)cc2)c1 (stereo not drawn) [Compound 1.17, N-[2-[(3-methoxyphenyl)methoxyimino]-1-methyl-ethyl]-4-[5-(trifluoromethyl)-1,2,4-oxadiazol-3-yl]benzamide]
≥ 80%: pest or weed control at 200 ppm (Phakopsora pachyrhizi) | pest or weed control at 200 ppm [1] | inhibition of growth at 20 ppm [2]

CC(CNC(=O)c1ccc(-c2noc(C(F)(F)F)n2)cc1)=NO[C@H](C)C(=O)O [Compound 1.117, (2R)-2-[[1-methyl-2-[[4-[5-(trifluoromethyl)-1,2,4-oxadiazol-3-yl]benzoyl]amino]ethylidene]amino] oxypropanoic acid]
≥ 80%: pest or weed control at 200 ppm [1] | inhibition of growth at 20 ppm [2] | pest or weed control at 200 ppm [3]

CC(C=NO[C@@H](C)C(=O)O)NC(=O)c1ccc(-c2noc(C(F)(F)F)n2)cc1 (stereo partly drawn) [Compound 1.32, (2S)-2-[2-[[4-[5-(trifluoromethyl)-1,2,4-oxadiazol-3-yl]benzoyl]amino]propylideneamino] oxypropanoic acid]
≥ 80%: pest or weed control at 200 ppm [1] | inhibition of growth at 20 ppm [2] | pest or weed control at 200 ppm [3]

CC(C=NOCCN)NC(=O)c1ccc(-c2noc(C(F)(F)F)n2)cc1 (stereo not drawn) [Compound 1.21, N-[2-(2-aminoethoxy-imino)-1-methyl-ethyl]-4-[5-(trifluoromethyl)-1,2,4-oxadiazol-3-yl]benzamide]
≥ 80%: pest or weed control at 200 ppm (Phakopsora pachyrhizi) | pest or weed control at 200 ppm [1] | pest or weed control at 200 ppm [3]

CON=CC(C)(C)NC(=O)c1ccc(-c2noc(C(F)(F)F)n2)cc1 [Compound 1.1, N-(2-methoxyimino-1,1-dimethyl-ethyl)-4-[5-(trifluoromethyl)-1,2,4-oxadiazol-3-yl]benzamide]
≥ 80%: pest or weed control at 200 ppm [1] | inhibition of growth at 20 ppm [2]

CC(C=NOCC(=O)O)NC(=O)c1ccc(-c2noc(C(F)(F)F)n2)cc1 (stereo not drawn) [Compound 1.20, 2-[2-[[4-[5-(trifluoromethyl)-1,2,4-oxadiazol-3-yl]benzoyl]amino]propylidene-amino] oxyacetic acid]
≥ 80%: pest or weed control at 200 ppm [1] | inhibition of growth at 20 ppm [2] | pest or weed control at 200 ppm [3]

CC(C=NOCc1ccc([N+](=O)[O-])cc1)NC(=O)c1ccc(-c2noc(C(F)(F)F)n2)cc1 (stereo not drawn) [Compound 1.16, N-[1-methyl-2-[(4-nitrophenyl)methoxyimino]ethyl]-4-[5-(trifluoromethyl)-1,2,4-oxadiazol-3-yl]benzamide]
≥ 80%: pest or weed control at 200 ppm (Phakopsora pachyrhizi) | pest or weed control at 200 ppm [1]

CC(CNC(=O)c1ccc(-c2noc(C(F)(F)F)n2)cc1)=NOC(C)C(=O)O (stereo not drawn) [Compound 1.125, 2-[[1-methyl-2-[[4-[5-(trifluoromethyl)-1,2,4-oxadiazol-3-yl]benzoyl]amino]ethylidene]amino] oxypropanoic acid]
≥ 80%: pest or weed control at 200 ppm [1] | inhibition of growth at 20 ppm [2] | pest or weed control at 200 ppm [3]

C[C@H](ON=CCNC(=O)c1ccc(-c2noc(C(F)(F)F)n2)cc1)C(=O)O [Compound 1.77, (2S)-2-[2-[[4-[5-(trifluoromethyl)-1,2,4-oxadiazol-3-yl]benzoyl]amino]ethylideneamino] oxypropanoic acid]
≥ 80%: pest or weed control at 200 ppm [1] | inhibition of growth at 20 ppm [2] | pest or weed control at 200 ppm [3]

Cc1ccc(CON=CC(C)NC(=O)c2ccc(-c3noc(C(F)(F)F)n3)cc2)cc1 (stereo not drawn) [Compound 1.18, N-[1-methyl-2-(p-tolylmethoxyimino)ethyl]-4-[5-(trifluoromethyl)-1,2,4-oxadiazol-3-yl]benzamide]
≥ 80%: pest or weed control at 200 ppm [1]

CON=CC(C)(C)NC(=O)c1ccc(-c2noc(C(F)(F)F)n2)cc1F [Compound 1.2, 2-fluoro-N-(2-methoxyimino-1,1-dimethyl-ethyl)-4-[5-(trifluoromethyl)-1,2,4-oxadiazol-3-yl]benzamide]
≥ 80%: pest or weed control at 200 ppm (Phakopsora pachyrhizi) | pest or weed control at 200 ppm [1] | inhibition of growth at 20 ppm [2]

CC(C=NOC(C)C(=O)O)NC(=O)c1ccc(-c2noc(C(F)(F)F)n2)cc1 (stereo not drawn) [Compound 1.37, 2-[2-[[4-[5-(trifluoromethyl)-1,2,4-oxadiazol-3-yl]benzoyl]amino]propylideneamino] oxypropanoic acid]
≥ 80%: pest or weed control at 200 ppm [1] | inhibition of growth at 20 ppm [2] | pest or weed control at 200 ppm [3]
